Laboratory results reported in paper PMC10669656, “ADMET and Solubility Analysis of New 5-Nitroisatine-Based Inhibitors of CDK2 Enzymes” (Biomedicines, 2023).

Experiment: PARIS III toxicological and environmental analysis of solvents (HTPI, EI)
Set-up: species or system human
Conditions: binary solvent with water
Description: The examined chemical compounds are 2-trifluoromethyl-N′-[5-nitro-2-oxo-1,2-dihydro-3H-indol-3-ylidene]benzohydrazide (1), 3-Amino-N′-[5-nitro-2-oxo-1,2-dihydro-3H-indol-3-ylidene]benzohydrazide (2), and 3-nitro-N′-[5-nitro-2-oxo-1,2-dihydro-3H-indol-3-ylidene]benzohydrazide (3). The evaluation of the descriptors defining molecular properties, absorption, metabolism, and toxicity of considered drugs was estimated with the use of ADMETlab 2.0 [9]. The quantitative structure–activity relationship (QSAR) algorithms implemented in used software based on the chemical structures of considered drugs described by SMILES definitions are presented in Figure 1. The method of interpretation and definitions of particular descriptors obtained during the analysis are included in the Results and Discussion sections. The toxicological analysis of solvents was realized with the use of the Solvent Substitution Software Tool, PARIS III [40, 41]. The characteristics of the Human Toxicity Potential by Ingestion (HTPI) of individual solvents and sets of binary solvents analyzed in this work were obtained based on the values of LD50 for particular solvents.
Additionally, the values of the Environmental Index (EI) were also estimated based on a set of eight environmental impact scores, which included, among others, HTPI, terrestrial toxicity potential, and aquatic toxicity potential. In the case of Equation (2), the σj is the weight for considered impact j, the φi,j stands for the value of normalized impact for considered solvent. (2) EIi=∑j=18σjφi,j¯

Compound | % HTPI x1.0 (relative to the pure organic solvent) (x* 0.1) [%] | % HTPI x1.0 (relative to the pure organic solvent) (x* 0.2) [%] | % HTPI x1.0 (relative to the pure organic solvent) (x* 0.3) [%] | % HTPI x1.0 (relative to the pure organic solvent) (x* 0.4) [%] | % HTPI x1.0 (relative to the pure organic solvent) (x* 0.5) [%] | % HTPI x1.0 (relative to the pure organic solvent) (x* 0.6) [%] | % HTPI x1.0 (relative to the pure organic solvent) (x* 0.7) [%] | % HTPI x1.0 (relative to the pure organic solvent) (x* 0.8) [%] | % HTPI x1.0 (relative to the pure organic solvent) (x* 0.9) [%] | % HTPI x1.0 (relative to the pure organic solvent) (x* 1.0) [%]
C[S+](C)[O-] [DMSO, dimethyl sulfoxide] | 37.7 | 55.8 | 67.8 | 76.4 | 83.1 | 87.7 | 91.5 | 95.4 | 97.7 | 100.0
CN1CCCC1=O [NMP, N-methyl-2-pyrrolidone] | 39.1 | 58.8 | 70.8 | 79.1 | 84.9 | 89.4 | 93.0 | 95.9 | 98.1 | 100.0
